Data set [1] can be described thus: Stability of compound in PBS buffer at pH 7.4 at 100 uM incubated for 72 hrs under dark condition by RP-HPLC analysis. As to conditions: read-out: Stability; call rule not given here. The format is physicochemical.
The nature of data set [2]: Stability of compound in PBS buffer at pH 7.4 at 100 uM incubated for 72 hrs under dark condition in presence of cysteine by Reverse-phase HPLC analysis. The format is physicochemical. The conditions noted are these: read-out: Stability.
A short description of data set [3]: Photorelease ability in PBS buffer at pH 7.4 assessed as fast uncaging of CO at 100 uM irradiated with >= 365 nm Hg lamp for 60 mins by RP-HPLC analysis. The format is physicochemical. The conditions noted are these: pH 7.4, 1 h.
Data set [4] can be described thus: Photorelease activity in PBS buffer at pH 7.4 assessed as release of CO using 3',6'-Bis(allyloxy)-3H-spiro(isobenzofuran-1,9'-xanthen)-3-one fluorescent probe at 500 uM irradiated with >= 365 nm Hg lamp for 30 mins in presence of PdCl2 by absorption spectroscopy. The conditions noted are these: pH 7.4, 0.5 h. The class given is physicochemical.
A short description of data set [5]: Drug uptake in mouse B16-F10 cells assessed as drug internalization by measuring blue fluorescence at 20 uM incubated for 4 hrs followed by propidium iodide staining based confocal laser scanning microscopy. The conditions noted are these: b16-f10, 4 h. The format is ADME, cell-based.
Data set [6] has as its system B16-F10. The data set can be described thus: Photorelease activity in mouse B16-F10 cells assessed as uncaging of active molecules of drug by measuring green fluorescence at 20 uM incubated for 4 hrs irradiated with >= 365 nm Hg lamp for 5 mins and further incubated for 4 hrs by propidium iodide staining based confocal laser scanning microscopy. The format is functional, cell-based. The conditions noted are these: time 8.0 hrs.

Data set [7] concerns B16-F10. The data set can be described thus: Cytotoxicity against mouse B16-F10 cells assessed as cell viability at 1.25 to 10 uM irradiated with >= 365 nm Hg lamp for 5 mins after 6 hrs post-treatment and further incubated for 72 hrs by MTT assay. The format is functional. As to conditions: dose 1.25-10 µM, time 78 hrs. On the technique in general: Tetrazolium assays rely on reduction of a dye to a coloured formazan, in cell work by metabolically active cells.

Data set [8] can be described thus: Photolysis of compound in PBS buffer at pH 7.4 assessed as compound decomposition by measuring final photoproduct formation at 0.1 mM irradiated with >= 365 nm for 60 mins by RP-HPLC analysis. The class given is physicochemical. The conditions noted are these: pH 7.4, 1 h, 100 µM.
Data set [9] can be described thus: Photorelease ability in CDCl3 assessed as compound decomposition by measuring (2,2'-(9-ethy1-9H-carbazole-3,6-chyl)bis(2-oxoacetaldehyde) photoproduct formation at 100 uM measured after 20 mins of irradiation with >= 365 nm Hg lamp by 1H-NMR spectroscopy. The class given is physicochemical.
Data set [10] can be described thus: Photorelease ability in PBS buffer at pH 7.4 assessed as compound decomposition by measuring 1-(9-ethyl-9H-carbazol-3-y1)-2,2-dihydroxyethan-l-one photoproduct formation at 100 uM measured upto 5.5 mins of irradiation with >= 365 nm Hg lamp by RP-HPLC analysis followed by 1H-NMR analysis. The format is physicochemical. The conditions noted are these: pH 7.4, 5.5 min.

Data set [11] is described as follows: Photolysis of compound in PBS buffer at pH 7.4 assessed as compound decomposition by measuring final photoproduct formation at 0.1 mM irradiated with >= 365 nm for 20 mins by RP-HPLC analysis. The conditions noted are these: pH 7.4, 20 min, 100 µM. The class given is physicochemical.
Data set [12] in a line: Photorelease ability in PBS buffer at pH 7.4 assessed as compound decomposition at 100 uM irradiated with >= 365 nm Hg lamp upto 30 mins by UV absorption spectroscopy. The class given is physicochemical. The conditions noted are these: read-out: Drug degradation.
The subject of data set [13] is B16-F10. Description: Cytotoxicity against mouse B16-F10 cells assessed as cell viability at 10 uM irradiated with >= 365 nm Hg lamp for 5 mins after 6 hrs post-treatment and further incubated for 72 hrs by MTT assay. The format is functional. The conditions noted are these: B16-F10, light or radiation study, time 78 hrs, read-out: Activity.

Molecules are shown by their SMILES.

As to `CCn1c2ccc(C(=O)COC(=O)CCCc3ccc(N(CCCl)CCCl)cc3)cc2c2cc(-c3coc(=O)o3)ccc21`, the remaining at 72 h, 100 µM was 96% in [1] and 93% in data set [2]. The results for the Drug metabolism result (in data set [3]; in [4]; with B16-F10 [6]) were “Active”, 5.7 ppm and 100%, respectively. In [5], the Drug uptake result is “Active”. In addition, in the data set with B16-F10 [7], the Activity turned out to be 35%. For the same compound, the Drug degradation in data set [8] was found to be 88%.

With `CCn1c2ccccc2c2cc(-c3coc(=O)o3)ccc21`, the remaining at 72 h, 100 µM in data set [1] was 96%; in data set [2], 87%. In addition, the Drug degradation came to 100% in [9], 100% in data set [10] and 93% in data set [11]. Moreover, the values for the Drug metabolism (in data set [4]; in the data set with B16-F10 [6]) were 5.9 ppm and 100%, respectively. Moreover, in data set [5], the Drug uptake entry is “Active”. Also, the Activity with B16-F10 [7] is reported as 70%.

As to `CCn1c2ccc(C(=O)C(O)O)cc2c2cc(-c3coc(=O)o3)ccc21`, in [12], the degraded at 0.5 h, 100 µM came to 100%.

Consider `O=C(O)CCCc1ccc(N(CCCl)CCCl)cc1` [CHLORAMBUCIL], for which the viability at 10 µM with B16-F10 [13] was determined as 80%.
